By MRT is commonly meant the average time that molecules of a dose stay in the body.

Eight compounds from patent US11667631B2, “FGFR4 inhibitor, preparation method therefor, and applications thereof” (Jiangsu Hansoh Pharmaceutical Group Co., Ltd., priority 2016, dated 2023) can be followed below.

SMILES strings stand for the structures.

Data set [1] deals with FGFR1 kinase (Homo sapiens (Human), UniProt P11362). Kind of data set: Enzymologic experiment of FGFR1 (TR-FRET). Type of data set: biochemical. As to conditions: FGFR1 kinase activity. On the procedure: In this experiment, the inhibitory effect of the compounds on FGFR1 kinase activity was tested by a fluorescence resonance energy transfer (TR-FRET) method, and the half maximal inhibitory concentration (IC50) of the compounds on the FGFR1 kinase activity was determined.
Sequence of FGFR1 kinase (P11362 22-822): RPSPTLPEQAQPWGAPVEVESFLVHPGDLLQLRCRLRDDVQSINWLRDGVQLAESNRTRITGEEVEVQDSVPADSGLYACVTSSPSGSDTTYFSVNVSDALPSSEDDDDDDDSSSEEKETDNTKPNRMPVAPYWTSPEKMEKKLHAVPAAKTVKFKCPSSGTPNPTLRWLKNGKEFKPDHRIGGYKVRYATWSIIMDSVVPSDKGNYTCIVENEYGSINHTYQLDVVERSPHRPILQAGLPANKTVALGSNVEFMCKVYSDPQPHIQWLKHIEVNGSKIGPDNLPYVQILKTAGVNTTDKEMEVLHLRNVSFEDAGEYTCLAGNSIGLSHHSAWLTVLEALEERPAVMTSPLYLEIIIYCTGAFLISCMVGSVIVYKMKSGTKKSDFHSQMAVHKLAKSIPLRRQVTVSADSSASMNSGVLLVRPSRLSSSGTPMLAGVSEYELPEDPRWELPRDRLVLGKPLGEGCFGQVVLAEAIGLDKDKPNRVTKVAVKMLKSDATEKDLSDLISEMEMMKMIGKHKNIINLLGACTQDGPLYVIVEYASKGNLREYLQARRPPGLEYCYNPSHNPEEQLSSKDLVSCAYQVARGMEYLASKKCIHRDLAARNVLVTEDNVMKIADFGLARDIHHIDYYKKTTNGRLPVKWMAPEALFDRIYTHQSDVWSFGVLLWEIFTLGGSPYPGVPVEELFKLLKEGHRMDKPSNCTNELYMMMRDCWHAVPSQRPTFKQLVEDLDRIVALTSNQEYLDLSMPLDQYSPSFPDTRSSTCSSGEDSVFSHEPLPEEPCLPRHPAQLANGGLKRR
1) 1˜5 μL of FGFR1 enzyme solution was added to a 384-well plate, and the final concentration of the enzyme was 0.1˜5 nM.
2) 1˜5 μL of diluted solution in gradient of the compound was added.
3) 1˜5 μL of a substrate mixture containing substrate polypeptide with a final concentration of 5˜50 nM and ATP with a final concentration of 10˜200 μM was added.
4) The mixture was incubated for 0.5˜3 hours at room temperature.
5) 10 μL of EDTA and a test solution comprising labeled antibody were added, and the plate was incubated for 1 hour at room temperature.
6) The fluorescence signal values of each plate were determined by a microplate reader at 665 nm.
7) The inhibition rates were calculated according to the fluorescence signal values.
8) The IC50 of the compound was obtained by curve fitting according to the inhibition rates at different concentrations, and the enzymatic activity of the specific example compounds is shown in Table 1.

The subject of data set [2] is HuH-7 cells. Kind of data set: Inhibition of HuH-7 cell proliferation (CellTiter-Glo). In kind it is cell-based. As to conditions: Homo sapiens, Huh-7, 72 h, read-out: HuH-7 IC50. On the procedure:
In this experiment, the inhibitory effect of the compounds on HuH-7 cell proliferation was tested by a CellTiter-Glo method, and the half maximal inhibitory concentration (IC50) of the compounds on the activity of cell proliferation was determined.
1) A 96-well cell culture plate was seeded with 50˜100 μL of HuH-7 cell suspension at a density of 1˜5×10^4 cells/ml. The culture plate was incubated in an incubator for 16˜24 hours (37° C., 5% CO2).
(§1) 2) Different concentrations of the test compound in a gradient dilution were added to the cells in the culture plate. The culture plate was incubated in an incubator for 72 hours (37° C., 5% CO2).
3) 50˜100 μL of CellTiter-Glo reagent was added to each well. Then, the culture plate was shaken or left to stand for 5˜30 minutes at room temperature.
(§2) 4) The chemiluminescence signal values of each plate were determined by a microplate reader.
(§3) 5) The inhibition rates were calculated according to the chemiluminescence signal values.
(§4) 6) The IC50 of the compound was obtained by curve fitting according to the inhibition rates at different concentrations, and the cell activity of the specific example compounds is shown in Table 2.
A general note: Cellular ATP, detected with luciferase, serves as a proxy for viable cell number.

Data set [3] deals with Hep 3B cells. Kind of data set: Inhibition of Hep 3B cell proliferation (CellTiter-Glo). Type of data set: cell-based. As to conditions: Homo sapiens, Hep3B, 72 h, read-out: Hep 3B IC50, Hep 3B cell proliferation, 72 hours, CellTiter-Glo. Here is the method: In this experiment, the inhibitory effect of the compounds on Hep 3B cell proliferation was tested by a CellTiter-Glo method, and the half maximal inhibitory concentration (IC50) of the compounds on the activity of cell proliferation was determined.
1) A 96-well cell culture plate was seeded with 50˜100 μL of Hep 3B cell suspension at a density of 1˜5×10^4 cells/ml. The culture plate was incubated in an incubator for 16˜24 hours (37° C., 5% CO2).
as §1
(§5) 3) 50˜100 μL of CellTiter-Glo reagent were added to each well. Then, the culture plate was shaken or left to stand for 5˜30 minutes at room temperature.
as §2, §3

In data set [4] the test system is SK-HEP-1 cells. The data set can be described thus: Inhibition of SK-HEP-1 cell proliferation (CellTiter-Glo). In kind it is cell-based. As to conditions: Homo sapiens, SK-HEP1, 72 h, read-out: SK-HEP-1 IC50. Here is the method:
In this experiment, the inhibitory effect of the compounds on SK-HEP-1 cell proliferation was tested by a CellTiter-Glo method, and the half maximal inhibitory concentration (IC50) of the compounds on the activity of cell proliferation was determined.
1) A 96-well cell culture plate was seeded with 50˜100 μL of SK-HEP-1 cell suspension at a density of 1˜5×10^4 cells/ml. The culture plate was incubated in an incubator for 16˜24 hours (37° C., 5% CO2).
as §1, §5, §2, §3, §4

Data set [5] is described as follows: Pharmacokinetic (PK) analysis in rats. As to conditions: SD rats, single intragastric administration, 5 mg/kg; for Peak Time tmax: (sampling in hours); for AUC(0-t) / AUC(0-inf) / half-life / MRT / Cmax: Sprague-Dawley, rat, plasma, po; for AUC(0-t): read-out: Area Under Curve AUC0-t; for AUC(0-inf): read-out: Area Under Curve AUC0-∞; for half-life: read-out: Half-Time t1/2 (converted); for MRT: read-out: Mean Residence Time MRT; for Cmax: read-out: Plasma Concentration Cmax. Type of data set: in vivo, Sprague Dawley (SD) rats. On the procedure: 1) 0.2 ml of intravenous blood was collected and placed in a K2EDTA test tube. The blood was centrifuged at room temperature at the speed of 1000˜3000×g for 5˜20 minutes to isolate the plasma, which was then stored at −80° C.
2) 160 μL of acetonitrile was added to 40 μL of plasma sample for precipitation, and then the mixture was centrifuged at the speed of 500˜2000×g for 5˜20 minutes.
3) 100 μL of treated solution was taken, and the concentration of the test compound was analyzed by LC/MS/MS. The LC/MS/MS analytical instrument was AB Sciex API 4000. • Liquid chromatography analysis: • Condition of Liquid chromatography: Shimadzu LC-20AD pump • Chromatographic column: phenomenex Gemiu 5 um C18 50×4.6 mm • Mobile phase: Solution A is 0.1% formic acid aqueous solution, and Solution B is acetonitrile • Flow rate: 0.8 mL/min • Elution time: 0-3.5 minutes, the eluent was used as follows: […]

Take `CO[C@@H]1CCCC1Oc1cc(NC(=O)N2CCCc3cc(CN4CCOCC4=O)c(C=O)nc32)ncc1C#N` (stereo partly drawn) [Example 16, N-(5-Cyano-4-(((trans)-2-methoxycyclopentyl)oxy)pyridin-2-yl)-7-formyl-6-((3-carbonylmorpholino)methyl)-3,4-dihydro-1,8-naphthyridin-1(2H)-carboxamide]: in data set [1], the IC50 is > 10000 nM. In addition, the IC50 in data set [2] worked out at 13.2 nM. The IC50 in data set [3] was determined as 10.5 nM. In addition, the IC50 in data set [4] is > 10000 nM. For the same compound, in data set [5], the Peak Time tmax came out at 2 h, the AUC(0-t) is 5520 ng·h/mL, the AUC(0-inf) turned out to be 5610 ng·h/mL and the half-life is 1.02 h. In data set [5], the MRT was 2.96 h and the Cmax came to 1600 ng/mL.
On to `CO[C@@H]1CCN(c2cc(NC(=O)N3CCCc4cc(CN5C(=O)OC[C@@H]5C)c(C=O)nc43)ncc2C#N)C1` [Example 38, N-(5-Cyano-4-((R)-3-methoxypyrrolidin-1-yl)pyridin-2-yl)-7-formyl-6-(((S)-4-methyl-2-carbonyloxazolidin-3-yl)methyl)-3,4-dihydro-1,8-naphthyridin-1(2H)-carboxamide], for which the IC50 in data set [1] is > 10000 nM. For the same compound, in data set [2], the IC50 was determined as 11.8 nM. In addition, in data set [3], the IC50 was 13.3 nM. In addition, the IC50 in data set [4] was > 10000 nM. For the same compound, in data set [5], the Peak Time tmax was determined as 2 h, the AUC(0-t) was found to be 2400 ng·h/mL, the AUC(0-inf) turned out to be 2540 ng·h/mL and the half-life is 1.38 h. Further, in data set [5], the MRT came out at 3.91 h and the Cmax worked out at 2660 ng/mL.
As for `CO[C@H]1CCN(c2cc(NC(=O)N3CCCc4cc(CN5CCOC5=O)c(C=O)nc43)ncc2C#N)C1` [Example 40, (S)-N-(5-Cyano-4-(3-methoxypyrrolidin-1-yl)pyridin-2-yl)-7-formyl-6-((2-carbonyloxazolidin-3-yl)methyl)-3,4-dihydro-1,8-naphthyridin-1(2H)-carboxamide], in data set [1], the IC50 was > 10000 nM. Moreover, in data set [2], the IC50 was 29.6 nM. Further, the IC50 in data set [3] was 38.7 nM. For the same compound, the IC50 in data set [4] is > 10000 nM. In addition, in data set [5], the Peak Time tmax came to 2 h, the AUC(0-t) was 1080 ng·h/mL, the AUC(0-inf) is 1100 ng·h/mL and the half-life is 1.05 h. Moreover, in data set [5], the MRT stood at 3.36 h and the Cmax worked out at 1560 ng/mL.
In the case of `CO[C@@H]1CCN(c2cc(NC(=O)N3CCCc4cc(CN5CCOC5=O)c(C=O)nc43)ncc2C#N)C1` [Example 41, (R)-N-(5-Cyano-4-(3-methoxypyrrolidin-1-yl)pyridin-2-yl)-7-formyl-6-((2-carbonyloxazolidin-3-yl)methyl)-3,4-dihydro-1,8-naphthyridin-1(2H)-carboxamide], the IC50 in data set [1] was > 10000 nM. Besides, the IC50 in data set [2] is 10.2 nM. The IC50 in data set [3] was determined as 9.9 nM. Further, the IC50 in data set [4] was > 10000 nM. In data set [5], the Peak Time tmax was 2 h, the AUC(0-t) worked out at 2880 ng·h/mL, the AUC(0-inf) amounted to 2960 ng·h/mL and the half-life is 1.17 h. Besides, in data set [5], the MRT amounted to 3.12 h and the Cmax turned out to be 1920 ng/mL.
Consider `CO[C@H]1CCN(c2cc(NC(=O)N3CCCc4cc(CN5CCOCC5=O)c(C=O)nc43)ncc2C#N)C1` [Example 51, (S)-N-(5-Cyano-4-(3-methoxypyrrolidin-1-yl)pyridin-2-yl)-7-formyl-6-((3-carbonylmorpholino)methyl)-3,4-dihydro-1,8-naphthyridin-1(2H)-carboxamide], for which the IC50 in data set [1] was > 10000 nM. Moreover, in data set [2], the IC50 turned out to be 27.5 nM. In addition, the IC50 in data set [3] was determined as 25.1 nM. Further, in data set [4], the IC50 was > 10000 nM. In data set [5], the Peak Time tmax turned out to be 2 h, the AUC(0-t) stood at 3720 ng·h/mL, the AUC(0-inf) is 3730 ng·h/mL and the half-life is 1.15 h. In addition, in data set [5], the MRT was 3.84 h and the Cmax came out at 1020 ng/mL.
Take `CO[C@@H]1CCC[C@H]1Nc1cc(NC(=O)N2CCCc3cc(CN4CCOCC4=O)c(C=O)nc32)ncc1C#N` [Example 60, N-(5-Cyano-4-(((1R,2R)-2-methoxycyclopentyl)amino)pyridin-2-yl)-7-formyl-6-((3-carbonylmorpholino)methyl)-3,4-dihydro-1,8-naphthyridin-1(2H)-carboxamide]: the IC50 in data set [1] is > 10000 nM. Further, in data set [2], the IC50 turned out to be 2.7 nM. For the same compound, the IC50 in data set [3] worked out at 1 nM. Further, the IC50 in data set [4] was > 10000 nM. In data set [5], the Peak Time tmax stood at 2 h, the AUC(0-t) came out at 3770 ng·h/mL, the AUC(0-inf) is 3790 ng·h/mL and the half-life was 0.88 h. In data set [5], the MRT was found to be 2.26 h and the Cmax turned out to be 1300 ng/mL.
Regarding `CO[C@@H]1CCC1Oc1cc(NC(=O)N2CCCc3cc(CN4CCOCC4=O)c(C=O)nc32)ncc1C#N` (stereo partly drawn) [Example 61, N-(5-Cyano-4-trans-((1,2)-2-methoxycyclobutoxy)pyridin-2-yl)-7-formyl-6-((3-carbonylmorpholino)methyl)-3,4-dihydro-1,8-naphthyridin-1(2H)-carboxamide], the IC50 in data set [1] is > 10000 nM. Besides, the IC50 in data set [2] is 6.2 nM. The IC50 in data set [3] stood at 3.7 nM. Besides, in data set [4], the IC50 is > 10000 nM. In data set [5], the Peak Time tmax was 2 h, the AUC(0-t) is 2110 ng·h/mL, the AUC(0-inf) came to 2120 ng·h/mL and the half-life was 0.75 h. In data set [5], the MRT is 2.96 h and the Cmax is 2640 ng/mL.
On to `CO[C@H]1CCC1Oc1cc(NC(=O)N2CCCc3cc(CN4CCOCC4=O)c(C=O)nc32)ncc1C#N` (stereo partly drawn) [Example 62, N-(5-Cyano-4-cis-((1,2)-2-methoxycyclobutoxy)pyridin-2-yl)-7-formyl-6-((3-carbonylmorpholino)methyl)-3,4-dihydro-1,8-naphthyridin-1(2H)-carboxamide], for which the IC50 in data set [1] is > 10000 nM. Besides, the IC50 in data set [2] came to 4.2 nM. In addition, the IC50 in data set [3] is 3.4 nM. The IC50 in data set [4] was > 10000 nM. For the same compound, in data set [5], the Peak Time tmax stood at 2 h, the AUC(0-t) came to 4020 ng·h/mL, the AUC(0-inf) is 4060 ng·h/mL and the half-life is 0.85 h. Besides, in data set [5], the MRT was found to be 2.98 h and the Cmax came to 2810 ng/mL.
